The subject of one data set is Venturia inaequalis. The experiment in a line: In vivo preventive test on Venturia inaequalis (apple scab). Particulars: 100 ppm of active ingredient, evaluated 10 days after inoculation.
In another data set the test system is Fusarium graminearum. Description: microbe, parasite or virus in culture. The format is cell-based.
Another data set deals with aflatoxines production. Description: microbe, parasite or virus in culture. Type of data set: cell-based, Aspergillus parasiticus.
The test system of a further data set is Septoria tritici. The experiment in a line: In vivo preventive test on Septoria tritici (wheat). Particulars: 500 ppm of active ingredient, evaluated 21 days after inoculation. From the text:
(§1) To test for preventive activity, young plants are sprayed with the preparation of active compound or active compound combination at the stated rate of application.

For a further data set, the system named is Pyrenophora teres. The experiment in a line: In vivo preventive test on Pyrenophora teres (barley). Particulars: 500 ppm of active ingredient, evaluated 7-9 days after inoculation. From the text:
One day after this treatment, the plants are inoculated with an aqueous spore suspension of Pyrenophora teres.

The next data set relates to Alternaria solani. The experiment in a line: In vivo preventive test on Alternaria solani (tomato). Particulars: 500 ppm of active ingredient, evaluated 7 days after inoculation. An excerpt:
One day after this treatment, the plants are inoculated with an aqueous spore suspension of Alternaria solani.

Data set [1] deals with Fusarium nivale (var. majus). The experiment in a line: In vivo curative test on Fusarium nivale (wheat). Particulars: 500 ppm of active ingredient, evaluated 5 days after inoculation.
For data set [2], the system named is Blumeria graminis f.sp. hordei. The experiment in a line: In vivo preventive test on Blumeria graminis (barley). Particulars: 500 ppm of active ingredient, evaluated 7 days after inoculation.
Excerpt: as §1

The subject of a further data set is Sphaerotheca fuliginea. The experiment in a line: In vivo preventive test on Sphaerotheca fuliginea (cucumber). Particulars: 500 ppm of active ingredient, evaluated 7 days after inoculation. From the text:
One day after this treatment, the plants are inoculated with an aqueous spore suspension of Sphaerotheca fuliginea.

The test system of a further data set is Botrytis cinerea. Description: In vivo preventive test on Botrytis cinerea (beans). Particulars: preventive, beans, lesion size 2 days after inoculation. An excerpt: To test for preventive activity, young plants are sprayed with the preparation of active compound. After the spray coating has dried on, 2 small pieces of agar covered with growth of Botrytis cinerea are placed on each leaf.

Data set [3] in a line: logP by HPLC on reversed-phase column (C 18), EEC Directive 79/831 Annex V.A8. The format is physicochemical. The method, then:
In table 1, the logP values were determined in accordance with EEC Directive 79/831 Annex V.A8 by HPLC (High Performance Liquid Chromatography) on a reversed-phase column (C 18), using the method described below: Temperature: 40° C.; […]

Another data set relates to Leptosphaeria nodorum. The experiment in a line: In vivo preventive test on Leptosphaeria nodorum (wheat). Particulars: 500 ppm of active ingredient, evaluated 7-9 days after inoculation. From the text:
One day after this treatment, the plants are inoculated with an aqueous spore suspension of Leptosphaeria nodorum.

In the next data set the test system is Uromyces appendiculatus. The experiment in a line: In vivo preventive test on Uromyces appendiculatus (beans). Particulars: 100 ppm of active ingredient, evaluated 10 days after inoculation.
The subject of another data set is Puccinia triticina. The experiment in a line: In vivo preventive test on Puccinia triticina (wheat). Particulars: evaluated 8 days after inoculation; for Efficacy: dose 500 ppm of active ingredient.
Another data set deals with Cochliobolus miyabeanus. The experiment in a line: In vivo protective test on Cochliobolus miyabeanus (rice). Particulars: dose 250 ppm of active ingredient, evaluated 4 days after inoculation.
Data set [4] deals with Fusarium nivale (var. majus). The experiment in a line: In vivo preventive test on Fusarium nivale (wheat). Particulars: 500 ppm of active ingredient, evaluated 5 days after inoculation.
Excerpt: as §1

Turning to `COC(c1cc(Cl)cc(Cl)c1)C(C)NC(=O)c1c(C(F)F)nn(C)c1F` (mixture of isomers) [Example 109], the Efficacy in the data set on Venturia inaequalis is on record as 99%; in the data set on Septoria tritici it was 100%; in the data set on Pyrenophora teres, 100%; in the data set with Alternaria solani, 95%; in data set [1], 100%; in data set [2], 100%. In the data set with Sphaerotheca fuliginea, this molecule had an Efficacy of 85%. The “% Inhibition of fungal growth at 50 μM” value with Fusarium graminearum came out at 100%. Further, the “% Inhibition of Aflatoxin at 50 μM” value with aflatoxines production was found to be 100%.

For the molecule `CCOC(c1ccc(Cl)cc1Cl)C(C)NC(=O)c1c(C(F)F)nn(C)c1Cl` (mixture of isomers) [Example 82], the Efficacy with Venturia inaequalis was 100%; in the data set on Septoria tritici, 100%; in the data set with Pyrenophora teres, 100%; in the data set on Alternaria solani, 95%; with Botrytis cinerea (100 ppm of active ingredient), 98%; in data set [1] it was 100%. Also, the Efficacy in the data set on Sphaerotheca fuliginea turned out to be 95%. In the data set with Fusarium graminearum, the “% Inhibition of fungal growth at 50 μM” value was determined as 100%. Further, the “% Inhibition of Aflatoxin at 50 μM” value in the data set on aflatoxines production was 100%.

As for `CCC(NC(=O)c1c(C(F)F)nn(C)c1F)C(OC)c1ccc(Cl)cc1Cl` (stereo not shown) [Example 77], the Efficacy in the data set on Venturia inaequalis was determined as 100%; in the data set with Septoria tritici, 100%; in the data set on Leptosphaeria nodorum, 95%; in the data set on Pyrenophora teres, 80%; with Alternaria solani, 100%; in the data set with Botrytis cinerea (100 ppm of active ingredient), 97%. Also, the Efficacy in data set [1] was found to be 100%; in data set [2], 100%; in the data set with Sphaerotheca fuliginea, 95%. Moreover, the “% Inhibition of fungal growth at 50 μM” value with Fusarium graminearum is on record as 100%. For the same molecule, in [3], the logP is 3.94. Besides, the “% Inhibition of Aflatoxin at 50 μM” value in the data set on aflatoxines production turned out to be 100%.

As for `COC(CNC(=O)c1c(C(F)F)nn(C)c1Cl)c1ccc(Cl)cc1Cl` (stereo not shown) [Example 74], the Efficacy with Venturia inaequalis was found to be 100%; in the data set with Septoria tritici, 100%; with Pyrenophora teres, 95%; in the data set on Botrytis cinerea (100 ppm of active ingredient), 93%; in data set [1], 100%; in [2], 100%. Besides, the Efficacy in the data set with Sphaerotheca fuliginea is reported as 75%. Moreover, the “% Inhibition of fungal growth at 50 μM” value in the data set on Fusarium graminearum is given as 100%. For the same molecule, the logP in data set [3] was 3.48. In the data set on aflatoxines production, the “% Inhibition of Aflatoxin at 50 μM” value came to 100%.

For `Cn1nc(C(F)F)c(C(=O)N(CCc2ccccc2)C2CC2)c1F` [Example 11], the “% Inhibition of fungal growth at 50 μM” value with Fusarium graminearum came to 100%. For the same molecule, the logP in data set [3] was determined as 2.88. For the same molecule, the “% Inhibition of Aflatoxin at 50 μM” value in the data set with aflatoxines production stood at 100%. The Efficacy is given as 100% in the data set with Septoria tritici; 95% in the data set on Leptosphaeria nodorum; 100% in the data set on Pyrenophora teres; 95% in the data set with Alternaria solani; 100% in [1]; 100% in [2]. In the data set with Sphaerotheca fuliginea, this molecule yielded an Efficacy of 83%.

Consider `CCOC(c1ccc(Cl)cc1Cl)C(C)NC(=O)c1c(C(F)F)nn(C)c1F` (mixture of isomers) [Example 83], for which the Efficacy was 100% in the data set with Venturia inaequalis; 100% in the data set with Septoria tritici; 90% in the data set with Leptosphaeria nodorum; 100% in the data set with Pyrenophora teres; 100% with Alternaria solani; 98% in the data set on Botrytis cinerea (100 ppm of active ingredient). Also, the Efficacy (in data set [1]; in [2]; in the data set on Sphaerotheca fuliginea) was 100% each time. Also, in the data set with Fusarium graminearum, the “% Inhibition of fungal growth at 50 μM” value came out at 100%. Besides, the “% Inhibition of Aflatoxin at 50 μM” value in the data set on aflatoxines production came to 100%.

With `CC(Cc1ccc(Cl)cc1Cl)NC(=S)c1c(C(F)F)nn(C)c1F` (stereo not shown) [Example 70], the Efficacy was 100% with Venturia inaequalis; 78% in the data set on Leptosphaeria nodorum; 75% in the data set with Uromyces appendiculatus; 100% in the data set with Pyrenophora teres; 95% with Alternaria solani; 100% in the data set with Botrytis cinerea (100 ppm of active ingredient). Moreover, the results for the Efficacy (in data set [1]; in [2]; with Sphaerotheca fuliginea) were 92%, 100% and 98%, respectively. In addition, in the data set with Fusarium graminearum, the “% Inhibition of fungal growth at 50 μM” value was determined as 100%. The logP in [3] was 4.16. Also, the “% Inhibition of Aflatoxin at 50 μM” value in the data set with aflatoxines production came out at 100%.

Turning to `COC(CNC(=O)c1c(C(F)F)nn(C)c1F)c1ccc(Cl)cc1Cl` (stereo not shown) [Example 75], the Efficacy is listed as 95% with Venturia inaequalis; 100% in the data set with Septoria tritici; 100% in the data set with Pyrenophora teres; 95% with Botrytis cinerea (100 ppm of active ingredient); 86% in data set [1]; 100% in data set [2]. Also, in the data set on Sphaerotheca fuliginea, the Efficacy came to 80%. The “% Inhibition of fungal growth at 50 μM” value in the data set on Fusarium graminearum is given as 100%. Further, in [3], the logP was 3.25. Also, in the data set on aflatoxines production, the “% Inhibition of Aflatoxin at 50 μM” value was found to be 100%.

For the molecule `CCC(NC(=O)c1c(C(F)F)nn(C)c1Cl)C(OC)c1ccc(Cl)cc1Cl` (mixture of isomers) [Example 76], the Efficacy in the data set with Venturia inaequalis is given as 100%; with Septoria tritici, 100%; in the data set with Pyrenophora teres, 100%; in the data set on Alternaria solani, 95%; in the data set with Botrytis cinerea (100 ppm of active ingredient), 72%; in [1] it was 86%. The Efficacy in [2] was 100%; with Sphaerotheca fuliginea it was 93%. Besides, the “% Inhibition of fungal growth at 50 μM” value in the data set on Fusarium graminearum was 100%. In the data set on aflatoxines production, the “% Inhibition of Aflatoxin at 50 μM” value turned out to be 100%.

Turning to `CC(CN(C(=O)c1c(C(F)F)nn(C)c1F)C1CC1)c1ccccc1` (stereo not shown) [Example 13], in the data set with Fusarium graminearum, the “% Inhibition of fungal growth at 50 μM” value came out at 100%. The same molecule yielded a logP in data set [3] of 3.17. For the same molecule, the “% Inhibition of Aflatoxin at 50 μM” value in the data set with aflatoxines production was found to be 100%. Also, the Efficacy in the data set on Septoria tritici is given as 93%; in the data set with Leptosphaeria nodorum it was 100%; in the data set with Pyrenophora teres it was 100%; in the data set on Alternaria solani, 95%; in data set [1] it was 93%; in [2] it was 100%.

For the molecule `COC(CNC(=O)c1c(C(F)F)nn(C)c1Cl)c1cc(Cl)cc(Cl)c1` (stereo not shown) [Example 106], in the data set with Fusarium graminearum, the “% Inhibition of fungal growth at 50 μM” value was 69%. Further, in data set [3], the logP is given as 3.55. Moreover, the “% Inhibition of Aflatoxin at 50 μM” value in the data set with aflatoxines production is 89%. Further, the results for the Efficacy (in the data set with Septoria tritici; with Pyrenophora teres; in data set [1]) were 71%, 90% and 93%, respectively.

Regarding `COC(c1cc(Cl)cc(Cl)c1)C(C)NC(=O)c1c(C(F)F)nn(C)c1Cl` (mixture of isomers) [Example 108], the Efficacy turned out to be 100% in the data set with Venturia inaequalis; 100% in the data set on Septoria tritici; 100% with Puccinia triticina; 100% in the data set with Uromyces appendiculatus; 100% in the data set on Pyrenophora teres; 90% in the data set with Alternaria solani. This molecule yielded an Efficacy in data set [1] of 100%. Moreover, the “% Inhibition of fungal growth at 50 μM” value with Fusarium graminearum was determined as 100%. Besides, in the data set with aflatoxines production, the “% Inhibition of Aflatoxin at 50 μM” value was 100%.

For `CC(Cc1c(F)cccc1F)N(C(=O)c1c(C(F)F)nn(C)c1F)C1CC1` (stereo not shown) [Example 26], the “% Inhibition of fungal growth at 50 μM” value with Fusarium graminearum worked out at 99%. The logP in data set [3] was 3.42. Besides, the “% Inhibition of Aflatoxin at 50 μM” value in the data set on aflatoxines production was 100%. The Efficacy in the data set with Septoria tritici was determined as 100%; in the data set on Puccinia triticina, 90%; in the data set on Leptosphaeria nodorum, 95%; in the data set on Pyrenophora teres, 100%; in the data set on Alternaria solani, 100%; in [1] it was 100%. Further, the Efficacy in [2] is 100%; with Sphaerotheca fuliginea, 86%.

For the molecule `CC(Cc1ncc(C(F)(F)F)cc1Cl)N(C(=O)c1c(C(F)F)nn(C)c1F)C1CC1` (stereo not shown) [Example 188, N-{1-[3-chloro-5-(trifluoromethyl)pyridin-2-yl]propan-2-yl}-N-cyclopropyl-3-(difluoromethyl)-5-fluoro-1-methyl-1H-pyrazole-4-carboxamide], the Efficacy with Venturia inaequalis turned out to be 100%; in the data set on Septoria tritici, 100%; in the data set with Puccinia triticina, 90%; in the data set with Cochliobolus miyabeanus, 80%; in the data set with Leptosphaeria nodorum, 100%; in [4] it was 100%. Also, the Efficacy with Uromyces appendiculatus was found to be 98%; in the data set with Pyrenophora teres, 100%; in the data set on Alternaria solani it was 100%; in data set [2] it was 100%; in the data set with Sphaerotheca fuliginea it was 100%. For the same molecule, the inhibition at 50 µM is 100% in the data set with Fusarium graminearum (Fusarium graminearum, 168 h, read-out: % Inhibition of fungal growth at 50 μM) and 100% with aflatoxines production (Aspergillus parasiticus, 168 h, read-out: % Inhibition of Aflatoxin at 50 μM). The molecule also gave a chromatographic logP in [3] (logP) of 3.8. Besides, the “Efficacy (protection)” value in the data set on Puccinia triticina (preventive, 500 ppm of active ingredient) is given as “greater than 90%”. Moreover, the pest or weed control at 100 ppm with Botrytis cinerea (Botrytis cinerea, 48 h, 100 ppm of active ingredient, read-out: Efficacy) turned out to be 98%. Moreover, in the data set on Botrytis cinerea (Botrytis cinerea, 48 h, 500 ppm of active ingredient, read-out: Efficacy), the pest or weed control at 500 ppm is above 95%.

The record behind these values is US9232799B2, “N-[(het)arylethyl)] pyrazole(thio)carboxamides and their heterosubstituted analogues” (BAYER INTELLECTUAL PROPERTY GMBH, priority 2010, dated 2016).
